Laboratory results published in patent publication US11666658B2, “Rifamycin analogs and antibody-drug conjugates thereof” (Regeneron Pharmaceuticals, Inc., priority 2018, dated 2023).
≈ marks a conversion by molar mass, not a printed value. Read-outs that look alike come from different tables or passages of the source.

How the values were obtained:
S. aureus NRS384 = experiment: Broth minimum inhibitory concentration (MIC) assay 2; type: cell-based, Staphylococcus aureus; details: Staphylococcus aureus, read-out: S. aureus Broth MIC
Method: To test the potency of rifamycin analogs of the disclosure in vitro, a broth growth inhibition assay was developed. For the assay, S. aureus NRS384 was grown in Tryptic Soy Broth (TSB) overnight, then sub-cultured 1:50 in fresh TSB and grown for an additional two hours. The culture was then pelleted via centrifugation and washed twice in PBS. The culture was then diluted to 1×10^6 cfu/mL in TSB and 100 μL of the suspension was added per well to a 2 mL dilution plate in triplicate. […] The plates were sealed and incubated at 37° C. with shaking for 24 hours, then 150 μL of each sample was added to 96 well microtiter plates and the OD600 nm was read on a Spectramax i3 Minimax 300.
The broth MIC experiments were assessed in at least two independent experiments and the median value is captured below unless indicated otherwise.

[1] = system: intracellular S. aureus NRS384 in THP-1 macrophages; experiment: Intracellular killing assay 2 (rifamycin analogs, S. aureus in THP-1 macrophages); type: cell-based, Staphylococcus aureus; details: Staphylococcus aureus, NRS384, 2 h, read-out: S. aureus Intracellular killing MIC
Method: THP-1 monocytic cell line was grown in media (RMPI+10% FBS+1% Penicillin/Streptomycin), then seeded at a density of 1e5 cells/well in a 96 well plate and differentiated into macrophages for three days prior to infection using 200 nM PMA. An overnight culture of S. aureus NRS384 was grown in RPMI, washed twice with PBS and resuspended at 1e7 cfu/mL in PBS. THP-1 were washed with warm media (RMPI without FBS) to remove the Penicillin/Streptomycin and then infected with the S. aureus suspension at a multiplicity of infection of 10:1 (S. aureus: macrophages). Plates were spun at 300×g for 5 minutes to synchronize adhesion of the bacteria, then incubated at 37° C. for 2 hours. Free-floating bacteria were removed by washing 2× with warm media and remaining extracellular S. aureus were killed by addition of media containing gentamicin (50 ug/mL). […] The compounds were added in media containing 50 µg/mL gentamicin to prevent extracellular growth of S. aureus. After 2 hours, plates were washed 2× with warm RPMI without FBS, and 100 ul of THP-1 lysis buffer (0.1% Triton in PBS) was added to each well. S. aureus survival was enumerated by colony forming units through serial dilution and plating onto TSA.
The intracellular MIC value indicated represents the median value of at least two independent experiments, unless indicated otherwise.

[2] = S. aureus NRS384 in TSB, 24 hours at 37° C., OD600, median of at least two independent experiments
[3] = lowest concentration giving intracellular S. aureus below limit of detection (50 cfu/mL) in THP-1 macrophages, median of at least two experiments

Row | SMILES | MIC (S. aureus NRS384; [2]) [µM] | MIC [1, 3] [µM] | MIC (S. aureus NRS384; NRS384, 24 h) [µM] | MIC [1] [µM]
1 | CO[C@H]1/C=C/O[C@@]2(C)Oc3c(C)c(O)c4c(=O)c(c5oc6cc(OCC7CCCN(C)C7)ccc6nc-5c4c3C2=O)NC(=O)/C(C)=C\C=C\[C@H](C)[C@H](O)[C@@H](C)[C@@H](O)[C@@H](C)[C@H](OC(C)=O)[C@@H]1C (some centres unmarked) [Analog 16f] | 0.0156 (≈ 0.0142 µg/mL) | 1 (≈ 0.912 µg/mL) |  | 
2 | CO[C@H]1/C=C/O[C@@]2(C)Oc3c(C)c(O)c4c(=O)c(c5oc6cc(OCC7CCN(C)C7)ccc6nc-5c4c3C2=O)NC(=O)/C(C)=C\C=C\[C@H](C)[C@H](O)[C@@H](C)[C@@H](O)[C@@H](C)[C@H](OC(C)=O)[C@@H]1C (some centres unmarked) [Analog 16j] | 0.0625 (≈ 0.0561 µg/mL) | 1 (≈ 0.898 µg/mL) |  | 
3 | CO[C@H]1/C=C/O[C@@]2(C)Oc3c(C)c(O)c4c(=O)c(c5oc6cc(OCCN7CCCC7)ccc6nc-5c4c3C2=O)NC(=O)/C(C)=C\C=C\[C@H](C)[C@H](O)[C@@H](C)[C@@H](O)[C@@H](C)[C@H](OC(C)=O)[C@@H]1C [Analog 16k] | 0.000977 (≈ 0.000877 µg/mL) | 1 (≈ 0.898 µg/mL) |  | 
4 | CO[C@H]1/C=C/O[C@@]2(C)Oc3c(C)c(O)c4c(=O)c(c5oc6cc(OCCCN(C)C)ccc6nc-5c4c3C2=O)NC(=O)/C(C)=C\C=C\[C@H](C)[C@H](O)[C@@H](C)[C@@H](O)[C@@H](C)[C@H](OC(C)=O)[C@@H]1C [Analog 16o] | 0.00391 (≈ 0.00346 µg/mL) | 0.2 (≈ 0.177 µg/mL) |  | 
5 | CO[C@H]1/C=C/O[C@@]2(C)Oc3c(C)c(O)c4c(=O)c(c5oc6cc(OCCCCN(C)C)ccc6nc-5c4c3C2=O)NC(=O)/C(C)=C\C=C\[C@H](C)[C@H](O)[C@@H](C)[C@@H](O)[C@@H](C)[C@H](OC(C)=O)[C@@H]1C [Analog 16p] | 0.0156 (≈ 0.014 µg/mL) | 1 (≈ 0.9 µg/mL) |  | 
6 | CO[C@H]1/C=C/O[C@@]2(C)Oc3c(C)c(O)c4c(=O)c(c5oc6cc(OCCNCCOCCN7CC7)ccc6nc-5c4c3C2=O)NC(=O)/C(C)=C\C=C\[C@H](C)[C@H](O)[C@@H](C)[C@@H](O)[C@@H](C)[C@H](OC(C)=O)[C@@H]1C [Analog 16r] |  |  | 0.0156 (≈ 0.0149 µg/mL) | 1 (≈ 0.957 µg/mL)

Continued by falling MIC (S. aureus NRS384; [2]), values first:

Row | MIC (S. aureus NRS384; [2]) [µM] | SMILES | MIC [1, 3] [µM] | MIC (S. aureus NRS384; NRS384, 24 h) [µM] | MIC [1] [µM]
7 | 0.0156 (≈ 0.0142 µg/mL) | CO[C@H]1/C=C/O[C@@]2(C)Oc3c(C)c(O)c4c(=O)c(c5oc6cc(OCC7CCN(C)CC7)ccc6nc-5c4c3C2=O)NC(=O)/C(C)=C\C=C\[C@H](C)[C@H](O)[C@@H](C)[C@@H](O)[C@@H](C)[C@H](OC(C)=O)[C@@H]1C [Analog 16g] | 0.2 (≈ 0.182 µg/mL) |  | 
8 | 0.0156 (≈ 0.0145 µg/mL) | CO[C@H]1/C=C/O[C@@]2(C)Oc3c(C)c(O)c4c(=O)c(c5oc6cc(OCCN7CCN(C)CC7)ccc6nc-5c4c3C2=O)NC(=O)/C(C)=C\C=C\[C@H](C)[C@H](O)[C@@H](C)[C@@H](O)[C@@H](C)[C@H](OC(C)=O)[C@@H]1C [Analog 16h] | 1 (≈ 0.927 µg/mL) |  | 
9 | 0.0156 (≈ 0.0143 µg/mL) | CO[C@H]1/C=C/O[C@@]2(C)Oc3c(C)c(O)c4c(=O)c(c5oc6cc(OCCN7CCOCC7)ccc6nc-5c4c3C2=O)NC(=O)/C(C)=C\C=C\[C@H](C)[C@H](O)[C@@H](C)[C@@H](O)[C@@H](C)[C@H](OC(C)=O)[C@@H]1C [Analog 16i] | 1 (≈ 0.914 µg/mL) |  | 
10 | 0.0156 (≈ 0.0144 µg/mL) | CO[C@H]1/C=C/O[C@@]2(C)Oc3c(C)c(O)c4c(=O)c(c5oc6cc(OCCN7CCCCCC7)ccc6nc-5c4c3C2=O)NC(=O)/C(C)=C\C=C\[C@H](C)[C@H](O)[C@@H](C)[C@@H](O)[C@@H](C)[C@H](OC(C)=O)[C@@H]1C [Analog 16n] | 1 (≈ 0.926 µg/mL) |  | 
11 | 0.00391 (≈ 0.00351 µg/mL) | CO[C@H]1/C=C/O[C@@]2(C)Oc3c(C)c(O)c4c(=O)c(c5oc6cc(OCC7CCCN7C)ccc6nc-5c4c3C2=O)NC(=O)/C(C)=C\C=C\[C@H](C)[C@H](O)[C@@H](C)[C@@H](O)[C@@H](C)[C@H](OC(C)=O)[C@@H]1C (some centres unmarked) [Analog 16l] | 1 (≈ 0.898 µg/mL) |  | 
12 | 0.00391 (≈ 0.00357 µg/mL) | CO[C@H]1/C=C/O[C@@]2(C)Oc3c(C)c(O)c4c(=O)c(c5oc6cc(OCCN7CCCCC7)ccc6nc-5c4c3C2=O)NC(=O)/C(C)=C\C=C\[C@H](C)[C@H](O)[C@@H](C)[C@@H](O)[C@@H](C)[C@H](OC(C)=O)[C@@H]1C [Analog 16m] | 1 (≈ 0.912 µg/mL) |  | 
13 | 0.00391 (≈ 0.00361 µg/mL) | CO[C@H]1/C=C/O[C@@]2(C)Oc3c(C)c(O)c4c(=O)c(c5oc6cc(OCCN7CC8CCC7C8)ccc6nc-5c4c3C2=O)NC(=O)/C(C)=C\C=C\[C@H](C)[C@H](O)[C@@H](C)[C@@H](O)[C@@H](C)[C@H](OC(C)=O)[C@@H]1C [Analog 16q] | 1 (≈ 0.924 µg/mL) |  | 
